Where “and” joins values, the source holds several entries; their conditions need not be identical. Equal values may be shown once. Toxic doses and inconclusive results are not listed.
Tested on: P388 leukemia ip, CD2F1 mice, survival T/C
Test: NCI In Vivo Anticancer Drug Screen. Data for tumor model P388 Leukemia (intraperitoneal) in CD2F1 (CDF1) mice
Settings: endpoint: median survival time, higher = longer survival
Summary of the method: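 Mice carrying the transplanted tumor received test compound or vehicle. Survival was recorded in each group, and the value is the treated-group measurement divided by that of the vehicle-treated control group.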

[1] = dose: 100.0 mg/kg/injection, schedule: Q01DX001 (ip), vehicle: saline with Tween-80
[2] = dose: 200.0 mg/kg/injection, schedule: Q01DX001 (ip), vehicle: saline with Tween-80
[3] = dose: 400.0 mg/kg/injection, schedule: Q01DX001 (ip), vehicle: saline with Tween-80
[4] = dose: 50.0 mg/kg/injection, schedule: Q01DX005 (ip), vehicle: saline with Tween-80
[5] = dose: 100.0 mg/kg/injection, schedule: Q01DX005 (ip), vehicle: saline with Tween-80
[6] = dose: 200.0 mg/kg/injection, schedule: Q01DX005 (ip), vehicle: saline with Tween-80
[7] = dose: 50.0 mg/kg/injection, schedule: Q01DX009 (ip), vehicle: water
[8] = dose: 100.0 mg/kg/injection, schedule: Q01DX009 (ip), vehicle: water
[9] = dose: 60.0 mg/kg/injection, schedule: Q01DX005 (ip), vehicle: Klucel (hydroxypropylcellulose) (HPC)
[10] = dose: 120.0 mg/kg/injection, schedule: Q01DX005 (ip), vehicle: Klucel (hydroxypropylcellulose) (HPC)
[11] = dose: 240.0 mg/kg/injection, schedule: Q01DX005 (ip), vehicle: Klucel (hydroxypropylcellulose) (HPC)
[12] = dose: 100.0 mg/kg/injection, schedule: Q01DX009 (ip), vehicle: saline
[13] = dose: 100.0 mg/kg/injection, schedule: Q04DX003 (ip), vehicle: saline
[14] = dose: 200.0 mg/kg/injection, schedule: Q04DX003 (ip), vehicle: saline
[15] = dose: 400.0 mg/kg/injection, schedule: Q01DX009 (ip), vehicle: saline
[16] = dose: 50.0 mg/kg/injection, schedule: Q01DX009 (ip), vehicle: saline with Tween-80
[17] = dose: 100.0 mg/kg/injection, schedule: Q01DX009 (ip), vehicle: saline with Tween-80
[18] = dose: 50.0 mg/kg/injection, schedule: Q01DX009 (ip), vehicle: saline
[19] = dose: 200.0 mg/kg/injection, schedule: Q01DX009 (ip), vehicle: saline with Tween-80

Compound: CS(=O)(=O)C#CCCCCCCC#CS(C)(=O)=O
- T/C (dose: 6.25 mg/kg/injection, schedule: Q04DX002 (ip), vehicle: saline): 104 % of control
- T/C (dose: 12.5 mg/kg/injection, schedule: Q04DX002 (ip), vehicle: saline): 97 % of control
- T/C (dose: 25.0 mg/kg/injection, schedule: Q04DX002 (ip), vehicle: saline): 102 % of control

Compound: CCC(c1ccc(OC)cc1)C(NCC(=O)N/N=C1\C[C@@H]2[C@H](CC[C@]3(C)[C@@H](O)CC[C@@H]23)c2ccc(O)cc21)c1ccc(OC)cc1 (stereo partly specified)
- T/C [1]: 100 % of control
- T/C [2]: 99 % of control
- T/C [3]: 99 % of control

Compound: O=C(Nc1ccc(Cl)c(Cl)c1)NN1CCCCCC1
- T/C [4]: 103 % of control
- T/C [5]: 103 % of control
- T/C [6]: 101 % of control

Compound: Cc1cc(C=C2C(=O)c3ccccc3C2=O)cc(C)c1O
- T/C (dose: 100.0 mg/kg/injection, schedule: Q04DX002 (ip), vehicle: saline): 97 % of control
- T/C (dose: 200.0 mg/kg/injection, schedule: Q04DX002 (ip), vehicle: saline): 101 % of control
- T/C (dose: 400.0 mg/kg/injection, schedule: Q04DX002 (ip), vehicle: saline): 93 % of control

Compound: CN(C)CC(O)Cn1ccnc1[N+](=O)[O-] (stereo unspecified)
- T/C (dose: 12.5 mg/kg/injection, schedule: Q01DX009 (ip), vehicle: water): 101 % of control
- T/C (dose: 25.0 mg/kg/injection, schedule: Q01DX009 (ip), vehicle: water): 101 % of control
- T/C [7]: 111 % of control
- T/C [8]: 111 % of control
- T/C (dose: 200.0 mg/kg/injection, schedule: Q01DX009 (ip), vehicle: water): 113 % of control

Compound: COc1ccc(C2OC(=O)C=C(C)O2)cc1 (stereo unspecified)
- T/C [9]: 104 % of control
- T/C [10]: 98 % of control
- T/C [11]: 117 % of control

Compound: CCOC(=O)C(C=O)(NC(=O)c1ccccc1)OCC (stereo unspecified)
- T/C (dose: 100.0 mg/kg/injection, schedule: Q04DX003 (ip), vehicle: saline with Tween-80): 95 % of control
- T/C (dose: 200.0 mg/kg/injection, schedule: Q04DX003 (ip), vehicle: saline with Tween-80): 90 % of control
- T/C (dose: 400.0 mg/kg/injection, schedule: Q04DX003 (ip), vehicle: saline with Tween-80): 95 % of control

Compound: CCOC(=O)C1=C(C)NC(C)=C(C(=O)OCC)C1c1ccc(OC)c(OC)c1
- T/C (dose: 25.0 mg/kg/injection, schedule: Q01DX009 (ip), vehicle: other): 106 % of control
- T/C (dose: 50.0 mg/kg/injection, schedule: Q01DX009 (ip), vehicle: other): 103 % of control
- T/C (dose: 100.0 mg/kg/injection, schedule: Q01DX009 (ip), vehicle: other): 97 % of control
- T/C (dose: 200.0 mg/kg/injection, schedule: Q01DX009 (ip), vehicle: other): 97 % of control
- T/C (dose: 400.0 mg/kg/injection, schedule: Q01DX009 (ip), vehicle: other): 88 % of control

Compound: C1=C(C2=C[P+](c3ccccc3)(c3ccccc3)C=C(c3ccccc3)O2)OC(c2ccccc2)=C[P+]1(c1ccccc1)c1ccccc1
- T/C (dose: 12.5 mg/kg/injection, schedule: Q01DX005 (ip), vehicle: saline with Tween-80): 103 % of control
- T/C (dose: 25.0 mg/kg/injection, schedule: Q01DX005 (ip), vehicle: saline with Tween-80): 100 % of control

Compound: CC1(COCCOCC2(C)CO2)CO1 (stereo unspecified)
- T/C [12]: 118 % of control
- T/C [13]: 100 % of control
- T/C [14]: 113 % of control
- T/C (dose: 400.0 mg/kg/injection, schedule: Q01DX009 (ip), vehicle: saline sonified): 177 % of control
- T/C [15]: 172 % of control
- T/C (dose: 400.0 mg/kg/injection, schedule: Q04DX003 (ip), vehicle: saline): 109 % of control
- T/C (dose: 600.0 mg/kg/injection, schedule: Q01DX009 (ip), vehicle: saline sonified): 200 % of control

Compound: CCOc1c(C)cc(Cc2ccc3c(c2)OCO3)cc1C
- T/C [4]: 108 % of control
- T/C [5]: 101 % of control
- T/C [6]: 92 % of control

Compound: COC(=O)CN(CC(=O)OC)C1CC1N(CC(=O)OC)CC(=O)OC (stereo unspecified)
- T/C (dose: 50.0 mg/kg/injection, schedule: Q01DX009 (ip), vehicle: Klucel (hydroxypropylcellulose) (HPC)): 89 % of control
- T/C (dose: 100.0 mg/kg/injection, schedule: Q01DX001 (ip), vehicle: Klucel (hydroxypropylcellulose) (HPC)): 98 % of control
- T/C (dose: 100.0 mg/kg/injection, schedule: Q01DX009 (ip), vehicle: Klucel (hydroxypropylcellulose) (HPC)): 97 % of control
- T/C (dose: 200.0 mg/kg/injection, schedule: Q01DX001 (ip), vehicle: Klucel (hydroxypropylcellulose) (HPC)): 102 % of control
- T/C (dose: 200.0 mg/kg/injection, schedule: Q01DX009 (ip), vehicle: Klucel (hydroxypropylcellulose) (HPC)): 95 % of control
- T/C (dose: 400.0 mg/kg/injection, schedule: Q01DX001 (ip), vehicle: Klucel (hydroxypropylcellulose) (HPC)): 89 % of control

Compound: COC(=O)C(CS)NC(=O)CCNC(=O)OCc1ccccc1 (stereo unspecified)
- T/C (dose: 25.0 mg/kg/injection, schedule: Q04DX003 (ip), vehicle: sodium bicarbonate): 91 % of control
- T/C (dose: 50.0 mg/kg/injection, schedule: Q04DX003 (ip), vehicle: sodium bicarbonate): 87 % of control
- T/C (dose: 100.0 mg/kg/injection, schedule: Q04DX003 (ip), vehicle: sodium bicarbonate): 96 % of control
- T/C (dose: 200.0 mg/kg/injection, schedule: Q04DX003 (ip), vehicle: sodium bicarbonate): 87 % of control
- T/C (dose: 400.0 mg/kg/injection, schedule: Q04DX003 (ip), vehicle: sodium bicarbonate): 91 % of control

Compound: O=[N+]([O-])c1cccnc1C1OCCO1
- T/C (dose: 50.0 mg/kg/injection, schedule: Q01DX009 (ip), vehicle: saline + Tween-80 + alcohol): 102 % of control
- T/C (dose: 100.0 mg/kg/injection, schedule: Q01DX009 (ip), vehicle: saline + Tween-80 + alcohol): 99 % of control

Compound: C[C@]12CC[C@H]3[C@@H](CC[C@H]4N(CCCl)CCC[C@]34C)[C@@H]1CC[C@@H]2O
- T/C (dose: 25.0 mg/kg/injection, schedule: Q01DX001 (ip), vehicle: saline): 108 % of control

Compound: O=C(O)c1ccc(COc2ccc([N+](=O)[O-])cc2Cl)cc1
- T/C [13]: 100 % of control
- T/C [14]: 99 % of control

Compound: Cc1ccc(S(=O)(=O)OI(O)c2ccccc2)cc1
- T/C [7]: 108 % of control
- T/C [8]: 104 % of control

Compound: CCN(N=Nc1ccc(OC)cc1)c1ccc(OC)cc1
- T/C (dose: 12.5 mg/kg/injection, schedule: Q01DX009 (ip), vehicle: saline with Tween-80): 103 % of control and 96 % of control
- T/C (dose: 25.0 mg/kg/injection, schedule: Q01DX009 (ip), vehicle: saline with Tween-80): 108 % of control and 109 % of control
- T/C [16]: 116 % of control and 117 % of control
- T/C [17]: 100 % of control and 124 % of control

Compound: O=C(O)/C=C/c1c2ccc(=O)cc-2oc2cc(O)ccc12
- T/C [9]: 103 % of control
- T/C [10]: 103 % of control
- T/C [11]: 91 % of control

Compound: Nc1ncc[nH]c1=O
- T/C [18]: 100 % of control
- T/C [12]: 97 % of control

Compound: Cc1cccc(OCC(O)CN2CC2)c1 (stereo unspecified)
- T/C [1]: 112 % of control
- T/C [2]: 120 % of control
- T/C [3]: 103 % of control

Compound: NCCCCC(NC(=O)c1ccccc1)C(=O)O (stereo unspecified)
- T/C [16]: 98 % of control
- T/C [17]: 100 % of control
- T/C [19]: 104 % of control

Compound: COC1(OC)CC=COC1(OC)OC
- T/C (dose: 60.0 mg/kg/injection, schedule: Q01DX005 (ip), vehicle: saline): 103 % of control
- T/C (dose: 120.0 mg/kg/injection, schedule: Q01DX005 (ip), vehicle: saline): 105 % of control
- T/C (dose: 240.0 mg/kg/injection, schedule: Q01DX005 (ip), vehicle: saline): 114 % of control

Compound: O=C1OC(C(=O)O)c2ccc3c(c21)OCO3 (stereo unspecified)
- T/C [17]: 100 % of control
- T/C [19]: 98 % of control
- T/C (dose: 400.0 mg/kg/injection, schedule: Q01DX009 (ip), vehicle: saline with Tween-80): 91 % of control

Compound: NC(=O)c1ncn(C2OC(CO)C(O)C2O)c1N (stereo unspecified)
- T/C [18]: 106 % of control and 109 % of control
- T/C [12]: 98 % of control and 95 % of control
- T/C (dose: 200.0 mg/kg/injection, schedule: Q01DX009 (ip), vehicle: saline): 103 % of control and 108 % of control
- T/C [15]: 107 % of control and 87 % of control

Compound: CCCCCCCCCCCCSC1COC2C(SCCCCCCCCCCCC)COC12 (stereo unspecified)
- T/C [4]: 100 % of control
- T/C [5]: 96 % of control
- T/C [6]: 99 % of control

Source: PubChem BioAssay AID330 (DTP/NCI, 2004)
